Data from ChEMBL document CHEMBL1949526, “Cyclic hydroxyamidines as amide isosteres: discovery of oxadiazolines and oxadiazines as potent and highly efficacious γ-secretase modulators in vivo” (J Med Chem, 2012).

Columns and labels:
Rattus norvegicus [1] = experiment: Antialzheimer activity in CD rat assessed as reduction in amyloid beta40 level in plasma at 10 mg/kg, po after 3 hrs by alphaLISA analysis; type: functional; set-up: scale not given: the % may be the effect or the level left
Rattus norvegicus [2] = species: Rattus norvegicus; experiment: Toxicity in rat assessed as production of goblet cell meta/hyperplasia in ileum at highest tolerable dose; type: organism-based; conditions: in vivo
Rattus norvegicus [3] = experiment: Antialzheimer activity in po dosed CD rat assessed as reduction in amyloid beta42 level in plasma after 3 hrs by alphaLISA analysis relative to total amyloid beta level; type: functional, organism-based
Rattus norvegicus [4] = experiment: Antialzheimer activity in CD rat assessed as reduction in amyloid beta42 level in plasma administered as po for 6 days by alphaLISA analysis relative to total amyloid beta level; type: functional, organism-based
[5] = Plasma concentration in CD rat at 10 mg/kg, po after 3 hrs; type: ADME, organism-based; set-up: dose 10 mg/kg, route oral
[6] = Half life in dog at 3 mg/kg, iv; type: ADME, organism-based, Canis lupus familiaris; set-up: dose 3 mg/kg, route intravenous; conditions: in vivo
Rattus norvegicus [7] = experiment: Antialzheimer activity in po dosed CD rat assessed as reduction in amyloid beta42 level in plasma after 3 hrs by alphaLISA analysis relative to amyloid beta40 level; type: functional, organism-based
Rattus norvegicus [8] = experiment: Antialzheimer activity in CD rat assessed as reduction in amyloid beta42 level in cortex administered as po for 6 days by alphaLISA analysis relative to total amyloid beta level; type: functional, organism-based
[9] = Volume of distribution at steady state in dog at 3 mg/kg, iv; type: ADME, organism-based, Canis lupus familiaris; set-up: dose 3 mg/kg, route intravenous; conditions: in vivo, read-out: Vdss
[10] = AUC in dog at 10 mg/kg, po; type: ADME, organism-based, Canis lupus familiaris, Plasma; set-up: dose 10 mg/kg, route oral; conditions: plasma
Rattus norvegicus [11] = experiment: Antialzheimer activity in CD rat assessed as reduction in amyloid beta42 level in plasma at 10 mg/kg, po after 3 hrs by alphaLISA analysis; type: functional; set-up: scale not given: the % may be the effect or the level left
[12] = Half life in rat at 3 mg/kg, iv; type: ADME, organism-based; set-up: dose 3 mg/kg, route intravenous; conditions: in vivo
[13] = Permeability from apical to basolateral side of human Caco2 cells; type: ADME, cell-based; conditions: Caco-2, read-out: permeability
Rattus norvegicus [14] = experiment: Antialzheimer activity in CD rat assessed as reduction in amyloid beta42 level in CSF at 10 mg/kg, po after 3 hrs by alphaLISA analysis; type: functional; set-up: scale not given: the % may be the effect or the level left
Gamma-secretase [15] = experiment: Modulation of gamma-secretase-mediated cleavage of human APP Swedish and London mutation expressed in HEK293 cells assessed as inhibition of amyloid beta42 production after 5 hrs by sandwich immunoassay; type: cell-based
Rattus norvegicus [16] = experiment: Antialzheimer activity in po dosed CD rat assessed as reduction in amyloid beta42 level in CSF after 3 hrs by alphaLISA analysis relative to total amyloid beta level; type: functional, organism-based
[17] = Cmax in rat at 10 mg/kg, po; type: ADME, organism-based; set-up: dose 10 mg/kg, route oral; conditions: in vivo
Rattus norvegicus [18] = experiment: Antialzheimer activity in po dosed CD rat assessed as reduction in amyloid beta42 level in cortex after 3 hrs by alphaLISA analysis relative to total amyloid beta level; type: functional, organism-based
Gamma-secretase [19] = experiment: Modulation of gamma-secretase-mediated cleavage of human APP Swedish and London mutation expressed in HEK293 cells assessed as inhibition of amyloid beta40 production after 5 hrs by sandwich immunoassay; type: cell-based
Rattus norvegicus [20] = species: Rattus norvegicus; experiment: Toxicity in rat assessed as decrease in body weight at highest tolerable dose; type: organism-based; conditions: in vivo
[21] = Oral bioavailability in dog at 10 mg/kg; type: ADME, organism-based, Canis lupus familiaris; conditions: in vivo
Rattus norvegicus [22] = experiment: Antialzheimer activity in po dosed CD rat assessed as reduction in amyloid beta42 level in cortex after 3 hrs by alphaLISA analysis relative to amyloid beta40 level; type: functional, organism-based
[23] = Clearance in rat at 3 mg/kg, iv; type: ADME, organism-based; set-up: dose 3 mg/kg, route intravenous; conditions: in vivo
[24] = Volume of distribution at steady state in rat at 3 mg/kg, iv; type: ADME, organism-based; set-up: dose 3 mg/kg, route intravenous; conditions: in vivo, read-out: Vdss
[25] = Half life in monkey at 3 mg/kg, iv; type: ADME, organism-based, Macaca mulatta; set-up: dose 3 mg/kg, route intravenous; conditions: rhesus monkey, in vivo
Gamma-secretase [26] = experiment: Modulation of gamma-secretase-mediated cleavage of human APP Swedish and London mutation expressed in HEK293 cells assessed as reduction of total amyloid beta level after 5 hrs by sandwich immunoassay; type: cell-based
Rattus norvegicus [27] = experiment: Antialzheimer activity in CD rat assessed as reduction in amyloid beta40 level in cortex at 10 mg/kg, po after 3 hrs by alphaLISA analysis; type: functional; set-up: scale not given: the % may be the effect or the level left
Rattus norvegicus [28] = experiment: Antialzheimer activity in CD rat assessed as reduction in amyloid beta42 level in plasma administered as po for 6 days by alphaLISA analysis relative to total amyloid beta40 level; type: functional, organism-based
Rattus norvegicus [29] = species: Rattus norvegicus; experiment: Toxicity in rat assessed as effect on HES-1 expression in jejunum at highest tolerable dose; type: organism-based; conditions: in vivo
Rattus norvegicus [30] = experiment: Antialzheimer activity in CD rat assessed as reduction in total amyloid beta level in CSF at 10 mg/kg, po after 3 hrs by alphaLISA analysis; type: functional; set-up: scale not given: the % may be the effect or the level left
Gamma-secretase [31] = experiment: Modulation of gamma-secretase-mediated notch signaling in HEK293 cells transfected with human APP Swedish and London mutation and Notch1 with truncated extracellular EGF repeat domain assessed as production of notch intracellular domain by MSD-based sandwich immunoassay; type: cell-based
Canis familiaris = species: Canis familiaris; experiment: Cardiotoxicity in dog assessed as effect on electrocardiographic QTc interval at compound concentration required for pharmacological effect; type: toxicity, organism-based, Canis lupus familiaris; conditions: in vivo
Rattus norvegicus [32] = experiment: Antialzheimer activity in CD rat assessed as reduction in amyloid beta42 level in CSF administered as po for 6 days by alphaLISA analysis relative to total amyloid beta40 level; type: functional, organism-based
Rattus norvegicus [33] = species: Rattus norvegicus; experiment: Toxicity in rat assessed as effect on adipsin expression in jejunum at highest tolerable dose; type: organism-based; conditions: in vivo
[34] = Clearance in monkey at 3 mg/kg, iv; type: ADME, organism-based, Macaca mulatta; set-up: dose 3 mg/kg, route intravenous; conditions: rhesus monkey, in vivo
[35] = Ratio of drug level in brain to plasma in CD rat at 10 mg/kg, po after 3 hrs; type: ADME, organism-based; set-up: dose 10 mg/kg, route oral; conditions: read-out: BPR
[36] = AUC in monkey at 10 mg/kg, po; type: ADME, organism-based, Macaca mulatta; set-up: dose 10 mg/kg, route oral; conditions: rhesus monkey, plasma
Rattus norvegicus [37] = species: Rattus norvegicus; experiment: Toxicity in rat assessed as decrease in thymus size at highest tolerable dose; type: organism-based; conditions: in vivo
[38] = Volume of distribution at steady state in monkey at 3 mg/kg, iv; type: ADME, organism-based, Macaca mulatta; set-up: dose 3 mg/kg, route intravenous; conditions: rhesus monkey, in vivo, read-out: Vdss
[39] = Clearance in dog at 3 mg/kg, iv; type: ADME, organism-based, Canis lupus familiaris; set-up: dose 3 mg/kg, route intravenous; conditions: in vivo
[40] = Cmax in monkey at 10 mg/kg, po; type: ADME, organism-based, Macaca mulatta; set-up: dose 10 mg/kg, route oral; conditions: rhesus monkey, in vivo
[41] = Cmax in dog at 10 mg/kg, po; type: ADME, organism-based, Canis lupus familiaris; set-up: dose 10 mg/kg, route oral; conditions: in vivo
Rattus norvegicus [42] = experiment: Antialzheimer activity in CD rat assessed as reduction in amyloid beta42 level in cortex at 10 mg/kg, po after 3 hrs by alphaLISA analysis; type: functional; set-up: scale not given: the % may be the effect or the level left
Rattus norvegicus [43] = experiment: Antialzheimer activity in CD rat assessed as reduction in total amyloid beta level in plasma at 10 mg/kg, po after 3 hrs by alphaLISA analysis; type: functional; set-up: scale not given: the % may be the effect or the level left
[44] = AUC in rat at 10 mg/kg, po; type: ADME, organism-based, Plasma; set-up: dose 10 mg/kg, route oral; conditions: plasma
Rattus norvegicus [45] = experiment: Antialzheimer activity in CD rat assessed as reduction in amyloid beta42 level in CSF administered as po for 6 days by alphaLISA analysis relative to total amyloid beta level; type: functional, organism-based
[46] = Oral bioavailability in rat at 10 mg/kg; type: ADME, organism-based; conditions: in vivo
Rattus norvegicus [47] = experiment: Antialzheimer activity in po dosed CD rat assessed as reduction in amyloid beta42 level in CSF after 3 hrs by alphaLISA analysis relative to amyloid beta40 level; type: functional, organism-based
Rattus norvegicus [48] = experiment: Antialzheimer activity in CD rat assessed as reduction in amyloid beta40 level in CSF at 10 mg/kg, po after 3 hrs by alphaLISA analysis; type: functional; set-up: scale not given: the % may be the effect or the level left
Rattus norvegicus [49] = experiment: Antialzheimer activity in CD rat assessed as reduction in amyloid beta42 level in cortex administered as po for 6 days by alphaLISA analysis relative to total amyloid beta40 level; type: functional, organism-based
[50] = Oral bioavailability in monkey at 10 mg/kg; type: ADME, organism-based, Macaca mulatta; conditions: rhesus monkey, in vivo

concentration at 3 h [5]: 3.6 µM
half-life [6]: 1.4 h
Vd [9]: 0.4 L/kg
AUC [10]: 26 µM·h
half-life [12]: 3.4 h
Papp A→B [13]: 30.2 ×10⁻⁶ cm/s
IC50 (Gamma-secretase [15]): 29 nM
Cmax [17]: 7.5 µM
IC50 (Gamma-secretase [19]): 170 nM
bioavailability [21]: 38%
clearance [23]: 6.1 mL/min/kg
Vd [24]: 1.6 L/kg
half-life [25]: 3 h
IC50 (Gamma-secretase [26]): 14100 nM
IC50 (Gamma-secretase [31]): > 50000 nM
clearance [34]: 6 mL/min/kg
Kp at 3 h [35]: 0.15
AUC [36]: 30 µM·h
Vd [38]: 1.4 L/kg
clearance [39]: 5 mL/min/kg
Cmax [40]: 8.8 µM
Cmax [41]: 4 µM
AUC [44]: 61 µM·h
bioavailability [46]: 98%
bioavailability [50]: 48%
SMILES: COc1cc(/C=C2\CCCN3C2=NO[C@]3(CO)c2ccc(F)cc2)ccc1-n1cnc(C)c1
Activity (Rattus norvegicus [1]): 44%
Activity (Rattus norvegicus [2]): Non-toxic
Activity (Rattus norvegicus [3]): Dose-dependent effect
Activity (Rattus norvegicus [4]): Dose-dependent effect
Activity (Rattus norvegicus [7]): Dose-dependent effect
Activity (Rattus norvegicus [8]): Dose-dependent effect
Activity (Rattus norvegicus [11]): 41%
Activity (Rattus norvegicus [14]): 66%
Activity (Rattus norvegicus [16]): Dose-dependent effect
Activity (Rattus norvegicus [18]): Dose-dependent effect
Activity (Rattus norvegicus [20]): Non-toxic
Activity (Rattus norvegicus [22]): Dose-dependent effect
Activity (Rattus norvegicus [27]): 77%
Activity (Rattus norvegicus [28]): Dose-dependent effect
Activity (Rattus norvegicus [29]): Non-toxic
Activity (Rattus norvegicus [30]): 120%
Activity (Canis familiaris): Non-toxic
Activity (Rattus norvegicus [32]): Dose-dependent effect
Activity (Rattus norvegicus [33]): Non-toxic
Activity (Rattus norvegicus [37]): Non-toxic
Activity (Rattus norvegicus [42]): 37%
Activity (Rattus norvegicus [43]): 77%
Activity (Rattus norvegicus [45]): Dose-dependent effect
Activity (Rattus norvegicus [47]): Dose-dependent effect
Activity (Rattus norvegicus [48]): 104%
Activity (Rattus norvegicus [49]): Dose-dependent effect
